Data taken from patent US12275725B2, “Inhibitors of the notch transcriptional activation complex and methods for use of the same” (University of Miami, priority 2019, dated 2025).
Converted amounts (≈) assume the structure as drawn. Read-outs that look alike come from different tables or passages of the source.

What was measured:
[1] = Pharmacokinetic study in mouse plasma; format: in vivo; conditions: for Cmax: read-out: *C0/Cmax; for bioavailability: mouse
Method: Pharmacokinetic studies were performed as previously described (Astudillo et al. (2016) Cancer Res). The following treatments were administered: NADi-260 via intraperitoneal (i.p.) route at 100 mg/kg, NADI-260 via intravenous route (i.v.) at 2 mg/kg, NADi-351 via i.p. at 10 mg/kg, NADi-351 via […] at 10 mg/kg and NADi-351 via oral route (PO) at 50 mg/kg. Blood samples were collected from each treatment group and their respective control grounds, plasma was separated from blood immediately by centrifugation at 4000 rpm for 10 min at 4° C. and stored below −70° C. until bioanalysis. All samples were processed for analysis by protein precipitation using acetonitrile and analyzed by fit for purpose LC-MS/MS method. Pharmacokinetic parameters were calculated using the non-compartmental analysis module of Phoenix WinNonlin (Version 6.3). Histological Analysis of Mouse Intestine Tissue

[2] = target: T1, Notch1 transcriptional complex (Homo sapiens, UniProt P46531); assay: 2xCSL DNA affinity precipitation, OE33 nuclear lysate: Notch1; format: cell-based; conditions: OE33, 48 hours of treatment
T1 construct: endogenous in cells; host or cells: OE33 cells, nuclear lysate
Method: DNA Affinity Purification
Streptavidin agarose beads (Pierce) were incubated with previously annealed 47-mer biotinylated dsDNA containing two high-affinity CSL binding sites facing forward (2×CSL binding DNA) or 2 mutated CSL binding sites (mut. DNA). Sequences were previously reported by Weaver et al. (2014) Cancer Res. The nuclear lysates of OE33 cell lines were incubated with the DNA streptavidin beads, and bound proteins were analyzed by Western blot. Protein analysis was carried out using conventional SDS-PAGE and transfer techniques. Blots were probed with the indicated antibody (“Ab”), using standard conditions, and detected using enhanced chemiluminescence (“ECL”). The following Ab were used: anti-Notch1^val1744 (4147S, Cell Signaling Technology), anti-Notch2^val1697 (SAB4502022, Sigma-Aldrich), anti-Notch3 (5276S, Cell Signaling), anti-CSL (5313S, Cell signaling), anti-SP1 (5931S, Cell Signaling), and anti-GAPDH (ab9483 Abcam).

[3] = GSH ethyl ester conjugation / parent remaining in human liver microsomes; format: in vitro ADME; conditions: for Percentage (%) Parent Remaining in HLM: reacted with GSH
[4] = ip, i.p. 10 mg/kg, mouse plasma
[5] = iv, i.v. 10 mg/kg, mouse plasma
[6] = po, p.o. 50 mg/kg, mouse plasma

T1 sequence (P46531 1754-2555 limits assumed): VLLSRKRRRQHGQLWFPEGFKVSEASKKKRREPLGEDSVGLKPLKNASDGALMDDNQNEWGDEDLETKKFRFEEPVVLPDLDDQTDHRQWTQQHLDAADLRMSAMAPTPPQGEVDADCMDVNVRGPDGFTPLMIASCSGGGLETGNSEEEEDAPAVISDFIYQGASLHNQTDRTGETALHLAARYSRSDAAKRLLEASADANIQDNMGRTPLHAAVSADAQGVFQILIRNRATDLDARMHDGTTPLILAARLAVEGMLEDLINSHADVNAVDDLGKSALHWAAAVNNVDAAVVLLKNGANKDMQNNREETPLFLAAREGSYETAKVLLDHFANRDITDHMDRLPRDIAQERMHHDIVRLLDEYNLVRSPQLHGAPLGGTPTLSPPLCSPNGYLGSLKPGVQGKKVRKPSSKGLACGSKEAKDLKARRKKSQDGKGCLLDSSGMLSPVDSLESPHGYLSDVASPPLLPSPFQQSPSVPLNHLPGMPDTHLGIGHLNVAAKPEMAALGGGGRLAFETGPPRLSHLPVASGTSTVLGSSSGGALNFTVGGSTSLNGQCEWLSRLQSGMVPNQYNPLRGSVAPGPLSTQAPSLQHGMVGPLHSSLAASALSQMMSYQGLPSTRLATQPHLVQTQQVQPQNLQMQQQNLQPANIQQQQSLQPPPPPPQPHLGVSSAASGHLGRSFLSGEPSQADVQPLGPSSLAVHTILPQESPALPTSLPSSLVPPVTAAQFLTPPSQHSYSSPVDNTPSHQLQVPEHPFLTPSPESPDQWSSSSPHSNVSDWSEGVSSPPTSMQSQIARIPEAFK
T1 sequence (Q06330 whole entry partner): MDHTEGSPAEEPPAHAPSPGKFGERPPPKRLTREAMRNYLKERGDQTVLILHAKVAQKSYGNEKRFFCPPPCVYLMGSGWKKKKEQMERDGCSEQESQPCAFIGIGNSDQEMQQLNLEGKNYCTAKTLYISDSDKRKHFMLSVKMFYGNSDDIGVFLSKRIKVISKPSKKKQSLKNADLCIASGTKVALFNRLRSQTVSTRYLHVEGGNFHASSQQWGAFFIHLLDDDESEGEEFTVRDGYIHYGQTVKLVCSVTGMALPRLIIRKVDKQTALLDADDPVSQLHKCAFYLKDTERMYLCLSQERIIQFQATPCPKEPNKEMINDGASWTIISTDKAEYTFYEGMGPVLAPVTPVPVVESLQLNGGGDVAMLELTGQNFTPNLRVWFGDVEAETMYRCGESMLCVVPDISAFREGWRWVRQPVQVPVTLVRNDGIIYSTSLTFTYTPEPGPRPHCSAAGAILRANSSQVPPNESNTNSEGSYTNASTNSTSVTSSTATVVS

## COc1cc(/C(C)=C2\SC(=S)N(CC(=O)N(C)C)C2=O)cc(F)c1OCc1nnc[nH]1 [NADi-351, (Z)-2-(5-(1-(4-((1H-1,2,4-triazol-3-yl)methoxy)-3-fluoro-5-methoxyphenyl)ethylidene)-4-oxo-2-thioxothiazolidin-3-yl)-N,N-dimethylacetamide]
physchem; pH 1.2, simulated gastric fluid
  solubility: 158 ± 7.7 µM (≈ 73.3 µg/mL)
physchem; pH 6.5, fassif
  solubility: 150 ± 4.1 µM (≈ 69.9 µg/mL)
physchem; pH 7.4, aqueous buffer
  solubility: 155 ± 9.6 µM (≈ 72 µg/mL)
[1]; [4]
  AUC(0-inf): 4550 ng·h/mL
  AUC(0-t): 4550 ng·h/mL
  Tmax: 15 min
  Cmax: 8200 ng/mL
[1]; [5]
  AUC(0-inf): 4570 ng·h/mL
  clearance: 36.5 mL/min/kg
  half-life: 87.6 min
[1]; iv, i.v. 10 mg/kg, mouse plasma, read-out: Vss
  Vd: 0.8 L/kg
[1]; mouse plasma, FIG. 3
  metabolic stability compared with NADi-260: significantly improved metabolic stability
[1]; FIG. 3
  bioavailability: excellent bioavailability
[1]; plasma, po, p.o. 50 mg/kg, read-out: % F
  bioavailability: > 100%
[1]; [6]
  AUC(0-inf): 38000 ng·h/mL
  AUC(0-t): 37900 ng·h/mL
  Tmax: 30 min
  Cmax: 17500 ng/mL
[2]
  formation of the Notch1 intracellular domain (N1icd) complex: inhibited the formation
[3]; incubation time 0 min
  Percentage (%) Parent Remaining in HLM: 100%
[3]; incubation time 60 min
  Percentage (%) Parent Remaining in HLM: 86%
[3]; within 60 minutes of incubation
  GSH ethyl ester conjugation in HLM: increased stability toward GSH ethyl ester conjugation
